# Test results taken from publication PMC12431658, “Versatile roles of rubredoxin reductase of Pseudomonas aeruginosa TBCF10839 in virulence and stress protection” (PLOS Pathogens, 2025).
# Molecular target: T1, rubredoxin reductase RubB (also RubR, RdxR) (Pseudomonas aeruginosa, UniProt Q9HTK9)
# T1 construct: gene alkT; gene 1,155 bp
# Experiment: stopped-flow FAD fluorescence (excitation […] nm)
# Assay type: biochemical
# Conditions: pH 8.0, 0.1 M NaCl, 25 °C; reduction of bound FAD; no RubA2
# T1 sequence (Q9HTK9 whole entry): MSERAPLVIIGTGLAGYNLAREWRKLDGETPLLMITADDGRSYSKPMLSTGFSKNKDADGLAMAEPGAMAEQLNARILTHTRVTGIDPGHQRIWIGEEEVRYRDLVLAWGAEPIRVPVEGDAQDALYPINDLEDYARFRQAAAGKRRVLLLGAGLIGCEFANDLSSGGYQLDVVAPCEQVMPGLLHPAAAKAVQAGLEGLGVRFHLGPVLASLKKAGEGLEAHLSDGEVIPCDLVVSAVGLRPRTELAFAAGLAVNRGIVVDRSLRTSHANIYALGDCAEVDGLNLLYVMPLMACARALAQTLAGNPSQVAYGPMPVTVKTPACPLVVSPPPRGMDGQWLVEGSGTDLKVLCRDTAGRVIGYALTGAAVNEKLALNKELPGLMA
smiles,measurement,value
NC(=O)C1=CN([C@@H]2O[C@H](COP(=O)(O)OP(=O)(O)OC[C@H]3O[C@@H](n4cnc5c(N)ncnc54)[C@H](O)[C@@H]3O)[C@@H](O)[C@H]2O)C=CC1 [NADH],stopped-flow FAD fluorescence (excitation 436 nm),after the addition of NADH the FAD fluorophore was reduced within milliseconds to FADH2
